Results taken from patent US20230046078A1, “METHODS OF USING SUBSTITUTED FLAVONES FOR TREATING BONE DISORDERS” (EMORY UNIVERSITY, priority 2021, published 2023).
“Also recorded” adds a separate entry of the source.

Assays:
BDNF/TrkB signaling = experiment: Immunoblotting of p-TrkB signaling in bone marrow after oral R13; format: in vivo, mice; conditions: R13-derived 7,8-DHF after oral administration of R13
MC3T3-E1 cells [1] = format: cell-based, Murine; conditions: OIM, 4 days
AEP = AEP activity assay on MC3T3-E1 cell lysates; format: cell-based, Murine; conditions: MC3T3 cells in OIM; substrate Z-Ala-Ala-Asn-AMC
Description: Cell lysates (10 μg) were incubated in 200 μl assay buffer (20 mM citric acid, 60 mM Na2HPO4, 1 mM EDTA, 0.1% CHAPS, and 1 mM DTT, pH 6.0) containing 20 μM δ-secretase substrate Z-Ala-Ala-Asn-AMC (Bachem, Bubendorf, Switzerland). AMC released by substrate cleavage was quantified by measuring at 460 nm in a fluorescence plate reader at 37° C. for 2 h in kinetic mode.

MC3T3-E1 cells [2] = format: cell-based, Murine; conditions: OIM, four days
Description: Total RNA was isolated by TRIzol (Life Technologies, Carlsbad, Calif.). Reverse transcription was performed with SuperScript III reverse transcriptase (Life Technologies). Gene-specific primers and probes were designed and bought from Taqman (Life Technologies). All real-time PCR reactions were performed using the ABI 7500-Fast Real-Time PCR System and the Taqman Universal Master Mix Kit (Life Technologies). The relative quantification of gene expression was calculated using the ΔΔCt method. Predesigned real-time PCR primers from Applied Biosystems (Waltham, Mass.) were used for the analysis of Opg (Tnfrsf11b; Mm0043545_m1), RANK-L (Tnfsf11; Mm00441908_m1), AEP (Lgmn; Mm01325350_m1), GAPDH (Gapdh; Mm99999915_g1).

MC3T3-E1 cells [3] = experiment: ELISA of OPG and RANK-L secreted into the medium of MC3T3 cells; format: cell-based, Murine; conditions: OIM; vs OIM alone
Excerpt: FIG. 9, Panel A contains representative images of ALP staining in […] cells treated with BDNF or 7,8-DHF combined with or without K252a for 14 days (n=3 independent experiments) (Scale bar, 5 mm (upper panel), 200 μm (lower panel)). […] FIG. 9, Panel C contains Western blots for MC3T3 cells cultured in complete medium or osteogenic induction medium (OIM) with BDNF or 7,8 DHF combined with or without K252a for 4 days. […] FIG. 9, Panel D contains graphs of the relative protein levels of C/EBPP, p-C/EBPβ, AEP, RANK-L, OPG, Osterix, p-TrkB/TrkB and p-Akt/AKT in MC3T3 cells cultured in the complete medium or OIM with BDNF or 7,8-DHF combined with or without K252a for four days. Data are shown as mean±SEM of three independent experiments, one-way ANOVA. Data are shown in each graph from left to right as 1) Control, 2) OIM+DMSO, 3) OIM+BDNF, 4) OIM+7,8-DHF, 5) OIM+BDNF+K252a, and 6) OIM+7,8-DHF+K252a. FIG. 9, Panel E contains graphs of an AEP enzymatic activity assay. BDNF and 7,8-DHF inhibit AEP activities, and K252a abolish BDNF and 7,8-DHF's effects. Data are shown as mean±SEM of 3 independent experiments, one-way ANOVA. Data are shown in each graph from left to right as 1) Control, 2) OIM+DMSO, 3) OIM+BDNF, 4) OIM+7,8-DHF, 5) OIM+BDNF+K252a, and 6) OIM+7,8-DHF+K252a. FIG. 9, Panel F contains graphs of qPCR results showing that OPG mRNA expression increases in MC3T3 cells after 7,8-DHF treatment for four days. Data are shown as mean±SEM of three independent experiments, one-way ANOVA. Data are shown in each graph from left to right as 1) Control, 2) OIM+DMSO, 3) OIM+BDNF, 4) OIM+7,8-DHF, 5) OIM+BDNF+K252a, and 6) OIM+7,8-DHF+K252a. FIG. 9, Panel G contains graphs showing that 7,8-DHF increases OPG and decreases the RANK-L/OPG ratio. Levels of OPG and RANK-L proteins secreted into the medium were measured by ELISA. Data are shown as mean±SEM of 3 independent experiments, one-way ANOVA. Data are shown in each graph from left to right as 1) Control, 2) OIM+DMSO, 3) OIM+BDNF, 4) OIM+7,8-DHF, 5) OIM+BDNF+K252a, and 6) OIM+7,8-DHF+K252a.

TrkB = conditions: primary neurons; read-out: EC50 for activating TrkB; cited from earlier work
MC3T3-E1 cells [4] = conditions: OIM
Description: MC3T3-E1 cells were seeded onto plates in complete medium and cultured for 24 days, until the cells reached 70% confluence.
MC3T3-E1 and RAW 264.7 cells were washed with ice-cold PBS and lysed in (50 mM Tris, pH 7.4, 40 mM NaCl, 1 mM EDTA, 0.5% Triton X-100, 1.5 mM Na3VO4, 50 mM NaF, 10 mM sodium pyrophosphate, 10 mM sodium β-glycerophosphate, supplemented with protease inhibitor cocktail) at 4° C. for 0.5 h, and centrifuged for 25 min at 15,000 rpm. The supernatant was boiled in SDS loading buffer. After SDS-PAGE, the samples were transferred to a nitrocellulose membrane. The membrane was blocked with TBS containing 5% nonfat milk and 0.1% Tween 20 (TBST) at room temperature for 2 hours, followed by the incubation with primary antibody at 4° C. overnight, and with the secondary antibody at room temperature for 2 hours. After washing with TBST, the membrane was developed using the enhanced chemiluminescent (ECL) detection system.
To further interrogate the molecular mechanism of 7,8-DHF in promoting OPG expression, a time course study in MC3T3-E1 cells in the presence of OIM was conducted.

Compound: O=c1cc(-c2ccccc2)oc2c(O)c(O)ccc12 [7,8-DHF]
- BDNF/TrkB signaling in the bone marrow (p-TrkB, AKT, MAPK phosphorylation) (BDNF/TrkB signaling): activates
- AEP expression (MC3T3-E1 cells [1]): diminished
- RANK-L protein (Western blot) (MC3T3-E1 cells [1]): augmentation
- AEP protease activities (AEP): greatly blocked; also recorded: inhibit
- RANK-L mRNA (MC3T3-E1 cells [2]): elevated
- OPG protein secreted into the medium (MC3T3-E1 cells [3]): further augmented; also recorded: increases
- RANK-L protein secreted into the medium (MC3T3-E1 cells [3]): further augmented
- RANK-L/OPG ratio (ELISA) (MC3T3-E1 cells [3]): OIM alone were significantly higher than BDNF and 7,8-DHF; also recorded: decreases
- EC50 (TrkB): ~50 nM
- CREB or c-Jun levels (MC3T3-E1 cells [4]; siRNA experiment): without interfering
- p-Akt (MC3T3-E1 cells [4]; time course 0-60 min): activated
- p-C/EBPβ signal (MC3T3-E1 cells [4]; time course 0-60 min): time-dependently increased
- p-CREB signal (MC3T3-E1 cells [4]; time course 0-60 min): time-dependently increased
- p-MAPK (MC3T3-E1 cells [4]; time course 0-60 min): activated
- p-TrkB (MC3T3-E1 cells [4]; time course 0-60 min): activated
- p-c-Jun signal (MC3T3-E1 cells [4]; time course 0-60 min): time-dependently increased
